Assay results published in ChEMBL document CHEMBL3639235, “Depsipeptides and their therapeutic use” (2014).

Molecular target: Histone deacetylase 1 (Homo sapiens, UniProt Q13547)
Test: Fluorescent Activity Assay: In vitro HDAC assays were performed using a HDAC fluorescent activity assay kit (Biomol, UK) according to the manufacturer's instructions. Compounds were reduced prior to analysis; 1 mM compound was reduced with 30 mM DTT in DMSO overnight at room temperature, protected from light. Reactions were then set up in a 96-well plate. For each reaction 10 ul compound (5x required concentration in assay buffer) was mixed with […] diluted HeIa Nuclear Extract (30-fold in assay buffer). Serial dilutions were set up for each compound. Reactions containing HeIa extract only and assay buffer only were also set up. 25 ul diluted Fluor de Lys substrate (100-fold in assay buffer) was added to each reaction, which were then incubated at 37C for 1 hour. The reaction was stopped by addition of 50 ul Fluor de Lys Developer (20-fold dilution in assay buffer, plus TSA diluted 100-fold). The reactions were then incubated at room temperature for 10 minutes before fluorescence was measured.

Chain of Histone deacetylase 1 (Q13547 whole entry): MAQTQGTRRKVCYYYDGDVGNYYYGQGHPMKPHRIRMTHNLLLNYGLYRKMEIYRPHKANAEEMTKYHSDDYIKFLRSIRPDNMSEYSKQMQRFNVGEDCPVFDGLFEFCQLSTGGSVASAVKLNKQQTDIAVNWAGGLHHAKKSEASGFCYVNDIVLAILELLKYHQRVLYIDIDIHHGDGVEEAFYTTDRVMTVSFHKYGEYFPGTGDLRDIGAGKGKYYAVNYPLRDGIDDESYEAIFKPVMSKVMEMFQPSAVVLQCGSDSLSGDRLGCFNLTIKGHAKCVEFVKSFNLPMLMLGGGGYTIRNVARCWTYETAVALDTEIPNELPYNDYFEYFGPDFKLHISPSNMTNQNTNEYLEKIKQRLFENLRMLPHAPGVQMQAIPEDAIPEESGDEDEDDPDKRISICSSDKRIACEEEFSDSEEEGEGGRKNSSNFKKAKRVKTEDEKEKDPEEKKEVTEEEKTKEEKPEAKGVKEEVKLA

IC50: 21.6 nM
SMILES: CC(=O)SCC/C=C/[C@@H]1CC(=O)N[C@H](C(C)C)C(=O)N[C@H](C)C(=O)N[C@H](C(C)C)[C@@H](O)CC(=O)O1
